For 32 compounds, IC50 results are on record in US8846928B2 (Portola Pharmaceuticals, Inc., priority 2010, dated 2014).

The assay concerns the target T1, full length active recombinant SYK enzyme (Homo sapiens, UniProt P43405).
T1 construct: full length active recombinant SYK enzyme (Millipore, Calif.); purchased Millipore
The assay can be described thus: Inhibition of Syk tyrosine phosphorylation activity (LANCE TR-FRET kinase assay). The format is biochemical. The method, then: Inhibition of Syk Tyrosine Phosphorylation Activity
Potency of candidate molecules for inhibiting Syk tyrosine phosphorylation activity is assessed by measuring the ability of a test compound to inhibit Syk-mediated tyrosine phosphorylation of a Syk-specific substrate.
SYK tyrosine phosphorylation activity is measured using the LANCE™ Technology developed by Perkin Elmer Life and Analytical Sciences (Boston, Mass.). LANCE™ refers to homogeneous time resolved fluorometry applications using techniques such as time-resolved fluorescence resonance energy transfer assay (TR-FRET) (see generally for procedures in Perkin Elmer Application Note—How to Optimize a Tyrosine Kinase Assay Using Time Resolved Fluorescence-Based LANCE Detection, wwww.perkinelmer.com/lifesciences). The assay principle involves detection of a phosphorylated substrate using energy transfer from a phosphospecific europium-labeled antibody to streptavidin-allophycocyanin as an acceptor.
To test the ability of candidate molecules to inhibit SYK tyrosine phosphorylation activity, molecules are reconstituted in 30% DMSO and serially diluted 1:3 with the final dilution containing DMSO in the absence of the candidate molecule. The final DMSO concentration in the assay is 3%. Kinase assays are performed as a two part reaction. […] The second reaction involves termination of the kinase reaction and the simultaneous addition of the detection reagents—europium-labeled anti-phosphotyrosine reagent (Eu-W1024-PY100, Perkin Elmer, Boston, Mass.) and Streptavidin-Allophycocyanin detection reagent (SA-APC, Prozyme, Calif.). The kinase reaction is performed in a black U-bottom 96-well microtitre plate. The final reaction volume is 50 μL and contains a final concentration of 1 nM active SYK enzyme, 550 nM SYK-substrate, and 100 μM ATP diluted in a buffer containing 50 mM Tris pH 7.5, 5 mM MgCl2, and 1 mM DTT. The reaction is allowed to proceed for 1 hour at room temperature. The quench buffer contains 100 mM Tris pH 7.5, 300 mM NaCl2, 20 mM EDTA, 0.02% Brij35, and 0.5% BSA. The detection reagents are added to the reaction mixture at the following dilutions-1:500 for Eu-W1024-PY100 and 1:250 for SA-APC. The kinase reaction is terminated by the addition of 50 μL quench buffer containing the detection reagents. The detection is allowed to proceed for 1 hr at room temperature. Detection of the phosphorylated substrate in the absence and presence of inhibitors is measured in the TR-FRET instrument, Analyst HT (Molecular Probes, Sunnyvale, Calif.) and the condition for measurements are set up using CriterionHost Release 2.0 (Molecular Probes, Sunnyvale, Calif.). The settings used are a follows: excitation 360 nm, emission 665-7.5 nm, beam splitter 350 nm 50/50, flash 100 pulses, delay 60 us, integration 400 us, z-height 2 mm. […] IC50s were derived by non-linear regression analysis. […]
(In TR-FRET formats the signal depends on donor and acceptor labels being close together.)

Structures are written as SMILES.

Turning to `NC(=O)c1ccc(N[C@@H]2CCCC[C@@H]2N)nc1Nc1ccc(-n2cccn2)cc1` (relative stereo) [Example 140, 6-(cis-2-aminocyclohexylamino)-2-(4-(1H-pyrazol-1-yl)phenylamino)nicotinamide], the IC50 was 0.01 to 0.1 µM.
As for `NC(=O)c1ccc(N[C@@H]2CCCC[C@@H]2N)nc1Nc1ccc2[nH]ncc2c1` (relative stereo) [Example 141, 6-(cis-2-aminocyclohexylamino)-2-(1H-indazol-5-ylamino)nicotinamide], the concentration for half-maximal inhibition (IC50) was in the range of 0.001 to 0.01 µM.
`Cc1cccc(Nc2cc(N[C@@H]3CCCC[C@@H]3N)ncc2C(N)=O)c1` (relative stereo) [Example 142, 6-(cis-2-aminocyclohexylamino)-4-(3-toluidino)nicotinamide]: the IC50 was over 1 µM.
With `Cc1cccc(Nc2cc(N[C@@H]3CCCC[C@@H]3N)ccc2C(N)=O)c1` [Example 1, 4-((1R,2S)-2-aminocyclohexylamino)-2-(m-tolylamino)benzamide], the 50% inhibitory concentration (IC50) is over 1 µM.
For the compound `Cn1ccc2c(Nc3cc(N[C@@H]4CCCC[C@@H]4N)ccc3C(N)=O)cccc21` [Example 2, 4-((1R,2S)-2-aminocyclohexylamino)-2-(1-methyl-1H-indol-4-ylamino)benzamide], the IC50 was 0.1 to 1 µM.
Consider `NC(=O)c1ccc(N[C@@H]2CCCC[C@@H]2N)cc1Nc1ccc(F)cc1` [Example 3, 4-((1R,2S)-2-aminocyclohexylamino)-2-(4-fluorophenylamino)benzamide], for which the IC50 was over 1 µM.
The result for `Cc1cc(C)cc(Nc2cc(N[C@@H]3CCCC[C@@H]3N)ccc2C(N)=O)c1` [Example 4, 4-((1R,2S)-2-aminocyclohexylamino)-2-(3,5-dimethylphenylamino)benzamide] reads 0.1 to 1 µM; that for `NC(=O)c1ccc(N[C@@H]2CCCC[C@@H]2N)cc1Nc1cccc(-n2nccn2)c1` [Example 5], 0.1 to 1 µM.
The result for `Cc1cc(Nc2cc(N[C@@H]3CCCC[C@@H]3N)ccc2C(N)=O)sn1` [Example 6, 4-((1R,2S)-2-aminocyclohexylamino)-2-(3-methylisothiazol-5-ylamino)benzamide] reads 0.01 to 0.1 µM; that for `NC(=O)c1ccc(N[C@@H]2CCCC[C@@H]2N)cc1Nc1cc(-c2ccccc2)no1` [Example 7, 4-((1R,2S)-2-aminocyclohexylamino)-2-(3-phenylisoxazol-5-ylamino)benzamide], 0.01 to 0.1 µM; that for `Cn1cc(Nc2cc(N[C@@H]3CCCC[C@@H]3N)ccc2C(N)=O)cn1` [Example 8, 4-((1R,2S)-2-aminocyclohexylamino)-2-(1-methyl-1H-pyrazol-4-ylamino)benzamide], over 1 µM.
In the case of `Cc1cc(Nc2cc(N[C@H](CC(C)C)C(N)=O)ccc2C(N)=O)sn1` [Example 9, (R)-4-(1-amino-4-methyl-1-oxopentan-2-ylamino)-2-(3-methylisothiazol-5-ylamino)benzamide] it was 0.01 to 0.1 µM; in that of `Cc1cc(Nc2cc(N[C@H](C)C(N)=O)ccc2C(N)=O)sn1` [Example 10, (R)-4-(1-amino-1-oxopropan-2-ylamino)-2-(3-methylisothiazol-5-ylamino)benzamide], 0.1 to 1 µM; in that of `Cc1cc(Nc2cc(N[C@@H](C(N)=O)C(C)C)ccc2C(N)=O)sn1` [Example 11, (R)-4-(1-amino-3-methyl-1-oxobutan-2-ylamino)-2-(3-methylisothiazol-5-ylamino)benzamide], 0.1 to 1 µM.
For `Cc1cc(Nc2cc(N[C@H](CC(C)C)C(N)=O)ccc2C(N)=O)no1` [Example 12, (R)-4-(1-amino-4-methyl-1-oxopentan-2-ylamino)-2-(5-methylisoxazol-3-ylamino)benzamide], the IC50 fell in the range of 0.1 to 1 µM.
In the case of `Cc1cc(Nc2cc(N[C@H](CC(C)C)C(N)=O)ccc2C(N)=O)on1` [Example 13, (R)-4-(1-amino-4-methyl-1-oxopentan-2-ylamino)-2-(3-methylisoxazol-5-ylamino)benzamide] it was 0.1 to 1 µM; in that of `Cc1cc(Nc2cc(N[C@H](Cc3ccccc3)C(N)=O)ccc2C(N)=O)sn1` [Example 14, (R)-4-(1-amino-1-oxo-3-phenylpropan-2-ylamino)-2-(3-methylisothiazol-5-ylamino)benzamide], 0.01 to 0.1 µM.
The result for `Cc1cc(Nc2cc(N[C@H](COCc3ccccc3)C(N)=O)ccc2C(N)=O)sn1` [Example 15, (R)-4-(1-amino-3-(benzyloxy)-1-oxopropan-2-ylamino)-2-(3-methylisothiazol-5-ylamino)benzamide] reads 0.1 to 1 µM; that for `Cc1cc(Nc2cc(N[C@H](CO)C(N)=O)ccc2C(N)=O)sn1` [Example 16, (R)-4-(1-amino-3-hydroxy-1-oxopropan-2-ylamino)-2-(3-methylisothiazol-5-ylamino)benzamide], 0.1 to 1 µM; that for `Cc1cc(Nc2cc(N[C@H](CC3CCCCC3)C(N)=O)ccc2C(N)=O)sn1` [Example 17, (R)-4-(1-amino-3-cyclohexyl-1-oxopropan-2-ylamino)-2-(3-methylisothiazol-5-ylamino)benzamide], 0.01 to 0.1 µM.
The result for `Cc1cc(Nc2cc(N[C@@H](C(N)=O)c3ccccc3)ccc2C(N)=O)sn1` [Example 18, (R)-4-(2-amino-2-oxo-1-phenylethylamino)-2-(3-methylisothiazol-5-ylamino)benzamide] reads 0.1 to 1 µM; that for `Cc1cc(Nc2cc(N[C@H](CC(C)C)C(N)=O)cc(F)c2C(N)=O)sn1` [Example 19, (R)-4-(1-amino-4-methyl-1-oxopentan-2-ylamino)-2-fluoro-6-(3-methylisothiazol-5-ylamino)benzamide], over 1 µM; that for `Cc1cc(Nc2cc(N[C@H](CC(C)C)C(N)=O)c(F)cc2C(N)=O)sn1` [Example 20, (R)-4-(1-amino-4-methyl-1-oxopentan-2-ylamino)-5-fluoro-2-(3-methylisothiazol-5-ylamino)benzamide], 0.01 to 0.1 µM.
For `Cc1cc(Nc2cc(N[C@@H]3CCCC[C@@H]3N)c(F)cc2C(N)=O)sn1` [Example 21, 4-((1R,2S)-2-aminocyclohexylamino)-5-fluoro-2-(3-methylisothiazol-5-ylamino)benzamide], the IC50 fell in the range of 0.01 to 0.1 µM.
As for `Cc1cc(Nc2cc(N[C@@H](C(N)=O)C3CCCCC3)ccc2C(N)=O)sn1` [Example 22, (R)-4-(2-amino-1-cyclohexyl-2-oxoethylamino)-2-(3-methylisothiazol-5-ylamino)benzamide], the IC50 was in the range of 0.01 to 0.1 µM.
In the case of `Cc1cc(Nc2c(C(N)=O)ccc(N[C@H](CC(C)C)C(N)=O)c2F)sn1` [Example 23, (R)-4-(1-amino-4-methyl-1-oxopentan-2-ylamino)-3-fluoro-2-(3-methylisothiazol-5-ylamino)benzamide], the IC50 was over 1 µM.
The result for `Cc1cc(Nc2cc(N[C@H](Cc3ccccc3)C(N)=O)c(F)cc2C(N)=O)sn1` [Example 24, (R)-4-(1-amino-1-oxo-3-phenylpropan-2-ylamino)-5-fluoro-2-(3-methylisothiazol-5-ylamino)benzamide] reads 0.001 to 0.01 µM.
As to `Cc1cc(Nc2cc(N[C@H](CC3CC3)C(N)=O)c(F)cc2C(N)=O)sn1` [Example 25, (R)-4-(1-amino-3-cyclopropyl-1-oxopropan-2-ylamino)-5-fluoro-2-(3-methylisothiazol-5-ylamino)benzamide], the IC50 lay within 0.01 to 0.1 µM.
On to `CC[C@@H](Nc1cc(Nc2cc(C)ns2)c(C(N)=O)cc1F)C(N)=O` [Example 26, (R)-4-(1-amino-1-oxobutan-2-ylamino)-5-fluoro-2-(3-methylisothiazol-5-ylamino)benzamide], for which the IC50 fell in the range of 0.01 to 0.1 µM.
The result for `Cc1cc(Nc2cc(N[C@H](Cc3ccc(F)cc3)C(N)=O)c(F)cc2C(N)=O)sn1` [Example 27, (R)-4-(1-amino-3-(4-fluorophenyl)-1-oxopropan-2-ylamino)-5-fluoro-2-(3-methylisothiazol-5-ylamino)benzamide] reads 0.01 to 0.1 µM; that for `Cc1cc(Nc2cc(N[C@H](Cc3ccc(O)cc3)C(N)=O)c(F)cc2C(N)=O)sn1` [Example 28, (R)-4-(1-amino-3-(4-hydroxyphenyl)-1-oxopropan-2-ylamino)-5-fluoro-2-(3-methylisothiazol-5-ylamino)benzamide], 0.1 to 1 µM; that for `COC[C@H](N)CNc1ccc(C(N)=O)c(Nc2cc(C)ns2)c1` [Example 29, (R)-4-(2-amino-3-methoxypropylamino)-2-(3-methylisothiazol-5-ylamino)benzamide], 0.1 to 1 µM.

For orientation: IC50 means the concentration at which inhibition is half-maximal.
